Experimental data: patent US12570642B2, “GLP-IR modulating compounds” (Gilead Sciences, Inc., priority 2021, dated 2026)

biological target: GLP-1R (Homo sapiens, UniProt P43220); assay: GLP-1R Activation - cAMP Assay; assay type: cell-based; details: […]; each compound run on one of the two cAMP assays (Assay 1 or Assay 2, not specified)
In short: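 CHO cells stably expressing GLP-1R, plated at 1,000 cells/well overnight, then equilibrated 1 h in HBSS with 20 mM Hepes and 0.1% BSA. Agonist added as 10-point dose response for 30 min at 37 °C. cAMP measured by HTRF (Cisbio Gs Dynamic kit); EC50 from sigmoidal fit.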

Sequence of GLP-1R (P43220 24-463): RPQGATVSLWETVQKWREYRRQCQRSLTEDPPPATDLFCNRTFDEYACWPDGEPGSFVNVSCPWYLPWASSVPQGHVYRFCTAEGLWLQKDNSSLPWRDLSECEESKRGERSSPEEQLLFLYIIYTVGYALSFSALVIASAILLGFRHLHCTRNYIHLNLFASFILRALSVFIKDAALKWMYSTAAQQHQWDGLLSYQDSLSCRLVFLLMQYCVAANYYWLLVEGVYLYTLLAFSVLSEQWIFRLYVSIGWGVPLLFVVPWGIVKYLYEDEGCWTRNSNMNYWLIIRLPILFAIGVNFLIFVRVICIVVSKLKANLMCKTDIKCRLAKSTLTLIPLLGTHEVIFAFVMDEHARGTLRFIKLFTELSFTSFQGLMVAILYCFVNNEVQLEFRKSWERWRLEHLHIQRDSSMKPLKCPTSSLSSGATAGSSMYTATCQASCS

With `CC(=O)N1[C@@H](Cn2c(Cc3cc(F)c(-c4cccc(OCc5ccc(C#N)cc5F)n4)cc3F)nc3ccc(C(=O)O)cc32)C[C@H]2C[C@H]21` [Example 150, 1-(((1R,3R,5R)-2-acetyl-2-azabicyclo[3.1.0]hexan-3-yl)methyl)-2-(4-(6-((4-cyano-2-fluorobenzyl)oxy)pyridin-2-yl)-2,5-difluorobenzyl)-1H-benzo[d]imidazole-6-carboxylic Acid] the EC50 was 63 pM.

same assay, conditions: cAMP increase in CHO cells stably expressing GLP-1R; each compound run on one of the two cAMP assays (Assay 1 or Assay 2, not specified)

In order of rising EC50:
1. CC1(C)COC[C@H]1n1c(Cc2cc(F)c(-c3ccc(F)c(OCc4cnc(-n5ccnn5)cc4Cl)n3)cc2F)nc2c(F)cc(C(=O)O)cc21 [Example 153, (S)-2-(4-(6-((4-chloro-6-(1H-1,2,3-triazol-1-yl)pyridin-3-yl)methoxy)-5-fluoropyridin-2-yl)-2,5-difluorobenzyl)-1-(4,4-dimethyltetrahydrofuran-3-yl)-4-fluoro-1H-benzo[d]imidazole-6-carboxylic Acid]  11 pM
2. CC1(C)COC[C@H]1n1c(Cc2ccc(-c3ccc(F)c(OCc4cnc(-n5ccnn5)cc4Cl)n3)cc2F)nc2ccc(C(=O)O)cc21 [Example 161, (S)-2-(4-(6-((4-chloro-6-(1H-1,2,3-triazol-1-yl)pyridin-3-yl)methoxy)-5-fluoropyridin-2-yl)-2-fluorobenzyl)-1-(4,4-dimethyltetrahydrofuran-3-yl)-1H-benzo[d]imidazole-6-carboxylic Acid]  15 pM
3. CC1(C)COC[C@H]1n1c(Cc2cc(F)c(-c3cccc(OCc4ccc(-n5ccnn5)cc4F)n3)cc2F)nc2ccc(C(=O)O)cc21 [Example 167, (S)-2-(2,5-difluoro-4-(6-((2-fluoro-4-(1H-1,2,3-triazol-1-yl)benzyl)oxy)pyridin-2-yl)benzyl)-1-(4,4-dimethyltetrahydrofuran-3-yl)-1H-benzo[d]imidazole-6-carboxylic Acid]  27 pM
4. CC1(C)COC[C@H]1n1c(Cc2ccc(-c3cccc(OCc4cnc(-n5ccnn5)cc4Cl)n3)cc2F)nc2ccc(C(=O)O)cc21 [Example 158, (S)-2-(4-(6-((4-chloro-6-(1H-1,2,3-triazol-1-yl)pyridin-3-yl)methoxy)pyridin-2-yl)-2-fluorobenzyl)-1-(4,4-dimethyltetrahydrofuran-3-yl)-1H-benzo[d]imidazole-6-carboxylic Acid]  32 pM
5. CC1(C)COC[C@H]1n1c(Cc2ccc(-c3ccc(F)c(OCc4cnc(-n5ccnn5)cc4Cl)n3)cc2F)nc2c(F)cc(C(=O)O)cc21 [Example 154, (S)-2-(4-(6-((4-chloro-6-(1H-1,2,3-triazol-1-yl)pyridin-3-yl)methoxy)-5-fluoropyridin-2-yl)-2-fluorobenzyl)-1-(4,4-dimethyltetrahydrofuran-3-yl)-4-fluoro-1H-benzo[d]imidazole-6-carboxylic Acid]  34 pM
6. CC1(C)COC[C@H]1n1c(Cc2cc(F)c(-c3ccc(F)c(OCc4cnc(-n5ccnn5)cc4Cl)n3)cc2F)nc2ccc(C(=O)O)cc21 [Example 160, (S)-2-(4-(6-((4-chloro-6-(1H-1,2,3-triazol-1-yl)pyridin-3-yl)methoxy)-5-fluoropyridin-2-yl)-2,5-difluorobenzyl)-1-(4,4-dimethyltetrahydrofuran-3-yl)-1H-benzo[d]imidazole-6-carboxylic Acid]  35 pM
7. CC1(C)COC[C@H]1n1c(Cc2cc(F)c(-c3ccc(F)c(OCc4ccc(-n5ccnn5)cc4F)n3)cc2F)nc2ccc(C(=O)O)cc21 [Example 163, (S)-2-(2,5-difluoro-4-(5-fluoro-6-((2-fluoro-4-(1H-1,2,3-triazol-1-yl)benzyl)oxy)pyridin-2-yl)benzyl)-1-(4,4-dimethyltetrahydrofuran-3-yl)-1H-benzo[d]imidazole-6-carboxylic Acid]  39 pM
8. CC1(C)COC[C@H]1n1c(Cc2c(F)cc(-c3ccc(F)c(OCc4cnc(-n5ccnn5)cc4Cl)n3)c(F)c2F)nc2ccc(C(=O)O)cc21 [Example 159, (S)-2-(4-(6-((4-chloro-6-(1H-1,2,3-triazol-1-yl)pyridin-3-yl)methoxy)-5-fluoropyridin-2-yl)-2,3,6-trifluorobenzyl)-1-(4,4-dimethyltetrahydrofuran-3-yl)-1H-benzo[d]imidazole-6-carboxylic Acid]  43 pM
9. Cc1cc(Cc2nc3ccc(C(=O)O)cc3n2[C@@H]2COCC2(C)C)c(Cl)cc1-c1cccc(OCc2cnc(-n3ccnn3)cc2Cl)n1 [Example 156, (S)-2-(2-chloro-4-(6-((4-chloro-6-(1H-1,2,3-triazol-1-yl)pyridin-3-yl)methoxy)pyridin-2-yl)-5-methylbenzyl)-1-(4,4-dimethyltetrahydrofuran-3-yl)-1H-benzo[d]imidazole-6-carboxylic Acid]  64 pM
10. CC1(C)COC[C@H]1n1c(Cc2c(F)cc(-c3cccc(OCc4cnc(-n5ccnn5)cc4Cl)n3)c(F)c2F)nc2ccc(C(=O)O)cc21 [Example 157, (S)-2-(4-(6-((4-chloro-6-(1H-1,2,3-triazol-1-yl)pyridin-3-yl)methoxy)pyridin-2-yl)-2,3,6-trifluorobenzyl)-1-(4,4-dimethyltetrahydrofuran-3-yl)-1H-benzo[d]imidazole-6-carboxylic Acid]  81 pM
11. O=C(O)c1cc(F)c2nc(Cc3cc(F)c(-c4nccc(OCc5ccc(C(F)(F)F)cc5F)n4)cc3F)n(C[C@@H]3CCO3)c2c1 [Example 149]  82 pM
12. Cc1cn(-c2ccc(COc3cccc(-c4cc(F)c(Cc5nc6ccc(C(=O)O)cc6n5[C@@H]5COCC5(C)C)cc4F)n3)c(F)c2)nn1 [Example 164, (S)-2-(2,5-difluoro-4-(6-((2-fluoro-4-(4-methyl-1H-1,2,3-triazol-1-yl)benzyl)oxy)pyridin-2-yl)benzyl)-1-(4,4-dimethyltetrahydrofuran-3-yl)-1H-benzo[d]imidazole-6-carboxylic Acid]  85 pM
13. CC1(C)COC[C@H]1n1c(Cc2ccc(-c3nc(OCc4ccc(C#N)cc4)c(F)cc3F)cc2F)nc2ccc(C(=O)O)cc21 [Example 152, (S)-2-(4-(6-((4-cyanobenzyl)oxy)-3,5-difluoropyridin-2-yl)-2-fluorobenzyl)-1-(4,4-dimethyltetrahydrofuran-3-yl)-1H-benzo[d]imidazole-6-carboxylic Acid]  115 pM
14. O=C(O)c1cc(F)c2nc(Cc3cc(F)c(-c4ncc(F)c(OCc5ccc(C(F)(F)F)cc5F)n4)cc3F)n(C[C@@H]3CCO3)c2c1 [Example 148, (S)-2-(2,5-difluoro-4-(5-fluoro-4-((2-fluoro-4-(trifluoromethyl)benzyl)oxy)pyrimidin-2-yl)benzyl)-4-fluoro-1-(oxetan-2-ylmethyl)-1H-benzo[d]imidazole-6-carboxylic Acid]  174 pM
15. CC1(C)COC[C@H]1n1c(Cc2cc(F)c(-c3cccc(OCc4ncc(-n5ccnn5)cc4Cl)n3)cc2F)nc2ccc(C(=O)O)cc21 [Example 162, (S)-2-(4-(6-((3-chloro-5-(1H-1,2,3-triazol-1-yl)pyridin-2-yl)methoxy)pyridin-2-yl)-2,5-difluorobenzyl)-1-(4,4-dimethyltetrahydrofuran-3-yl)-1H-benzo[d]imidazole-6-carboxylic Acid]  187 pM
16. CC1(C)COCC1n1c(Cc2cc(F)c(-c3cccc(OCc4ccc(C#N)cc4F)n3)cc2F)nc2ccc(C(=O)O)c(F)c21 (centres unmarked) [Example 166, 2-(4-(6-((4-cyano-2-fluorobenzyl)oxy)pyridin-2-yl)-2,5-difluorobenzyl)-1-(4,4-dimethyltetrahydrofuran-3-yl)-7-fluoro-1H-benzo[d]imidazole-6-carboxylic Acid]  222 pM
17. CC(=O)NCc1cc(F)c(COc2cccc(-c3cc(F)c(Cc4nc5ccc(C(=O)O)cc5n4C[C@@H]4CCO4)cc3F)n2)cn1 [Example 147, (S)-2-(4-(6-((6-(acetamidomethyl)-4-fluoropyridin-3-yl)methoxy)pyridin-2-yl)-2,5-difluorobenzyl)-1-(oxetan-2-ylmethyl)-1H-benzo[d]imidazole-6-carboxylic Acid]  233 pM
18. CC1(C)COC[C@H]1n1c(Cc2c(F)cc(-c3nc(OCc4ccc(C#N)cc4)c(F)cc3F)cc2F)nc2ccc(C(=O)O)cc21 [Example 151, (S)-2-(4-(6-((4-cyanobenzyl)oxy)-3,5-difluoropyridin-2-yl)-2,6-difluorobenzyl)-1-(4,4-dimethyltetrahydrofuran-3-yl)-1H-benzo[d]imidazole-6-carboxylic Acid]  234 pM
19. Cc1c(-c2cccc(OCc3ccc(C#N)cc3F)n2)ccc(Cc2nc3ccc(C(=O)O)cc3n2C[C@@H]2CCO2)c1F [Example 146, (S)-2-(4-(6-((4-cyano-2-fluorobenzyl)oxy)pyridin-2-yl)-2-fluoro-3-methylbenzyl)-1-(oxetan-2-ylmethyl)-1H-benzo[d]imidazole-6-carboxylic Acid]  379 pM
20. CC1(C)COC[C@H]1n1c(Cc2cc(F)c(-c3cccc(OCc4ccc(C(F)(F)F)cc4F)n3)cc2F)nc2ccc(C(=O)O)cc21 [Example 168, (S)-2-(2,5-difluoro-4-(6-((2-fluoro-4-(trifluoromethyl)benzyl)oxy)pyridin-2-yl)benzyl)-1-(4,4-dimethyltetrahydrofuran-3-yl)-1H-benzo[d]imidazole-6-carboxylic Acid]  388 pM
21. COCCn1c(Cc2ccc(-c3ccc(F)c(OCc4cnc(-n5ccnn5)cc4Cl)n3)cc2F)nc2ccc(C(=O)O)cc21 [Example 155, 2-(4-(6-((4-chloro-6-(1H-1,2,3-triazol-1-yl)pyridin-3-yl)methoxy)-5-fluoropyridin-2-yl)-2-fluorobenzyl)-1-(2-methoxyethyl)-1H-benzo[d]imidazole-6-carboxylic Acid]  416 pM
22. CC1(C)COCC1n1c(Cc2cc(F)c(-c3cccc(OCc4ccc(C#N)cc4F)n3)cc2F)nc2ccc(C(=O)O)c(F)c21 (centres unmarked) [Example 165, 2-(4-(6-((4-cyano-2-fluorobenzyl)oxy)pyridin-2-yl)-2,5-difluorobenzyl)-1-(4,4-dimethyltetrahydrofuran-3-yl)-7-fluoro-1H-benzo[d]imidazole-6-carboxylic Acid]  553 pM
